Results on three compounds are retold here after patent US9358276B2, “Methods of diagnosing and treating small intestinal bacterial overgrowth (SIBO) and SIBO-related conditions” (Cedars-Sinai Medical Center, priority 1999, dated 2016).

Series [1] relates to release of 5-HT from the proximal gut. Kind of series: 5-HT released by the proximal gut (ELISA of mid-gut fistula output). Format: in vivo, dog. Conditions: intravenous PYY (0.8 mg/kg/h); Control 140.1 μg. On the procedure: To test the hypothesis that fat in the distal gut causes the release of 5-HT in the proximal gut, the amount of 5-HT collected from the output of the mid-gut fistula (proximal gut 5-HT) over a 90-minute period of buffer perfusion through both the duodenal and mid-gut fistulas (2 mL/min); buffer (control) or oleate (60 mM) was administered to the distal gut (n=1). The amount of 5-HT was determined using an ELISA kit specific for 5-HT (Sigma; Graham-Smith, D. G., The carcinoid syndrome, In: Topics in Gastroenterology, Truclove, S. C. and Lee, E. (eds.), Blackwells, London, p. 275 [1977]; Singh, S. M. et al., Concentrations of serotonin in plasma-a test for appendicitis?, Clin. Chem. 34:2572-2574 [1988]). The amount of 5-HT released by the proximal gut increased in response to fat in the distal gut from 100 μg in the control (buffer minus oleate) to 338 μg (buffer plus oleate to distal gut), showing that 5-HT is released in the proximal gut in response to fat in the distal gut. Thus, the release of 5-HT by the proximal gut can serve as a relayed signal for fat in the distal gut. The relayed release of 5-HT in the proximal gut in response to fat in the distal gut is consistent with Example 14(2), showing that slowing of intestinal transit by fat depends on an efferent 5-HT-mediated pathway to the proximal gut.
To test the hypothesis that 5-HT in the distal gut causes the release of 5-HT in the proximal gut, the amount of 5-HT collected from the output at the mid-gut fistula (Proximal gut 5-HT) over a 90-minute period of buffer perfusion through both the duodenal and mid-gut fistulas (2 mL/min each) was compared in the presence or absence of 5-HT (0.05 mg/kg/h) administered to the distal gut (n=1). 5-HT concentration was determined using an ELISA kit specific for 5-HT (Sigma). The amount of 5-HT released by the proximal gut increased from 156 μg in the control (minus distal 5-HT) to 450 μg (plus 5-HT to distal gut), implying that 5-HT is released by the proximal gut in response to 5-HT in the distal gut. Thus, the release of 5-HT by the proximal gut can serve as a relayed signal for distal gut 5-HT. This relayed release of 5-HT in the proximal gut explains the results of Example 14(6) showing that the slowing of intestinal transit by distal gut 5-HT was abolished by ondansetron in the proximal gut (efferent limb of response) as well as in the distal gut (afferent limb of response).
To test the hypothesis that the proximal gut releases 5-HT in response to lipid in the distal gut, we compared the amount of 5-HT in the output of the midgut fistula (i.e., proximal gut 5-HT) with buffered saline (control) or oleate in the distal gut. The amount of 5-HT collected over 90 min was measured using a 5-HT-specific ELISA test kit, as described herein above. Four dogs were tested.
The amount of 5-HT released from the proximal gut in response to intravenous PYY or buffered saline (Control) during buffer perfusion (2 mL/min over 90 minutes) through both the duodenal and mid-gut fistulas was measured to test the hypothesis that intravenous PYY (0.8 mg/kg/h) causes the release of 5-HT in the proximal gut. 5-HT was measured as in Example 14(9) above. The amount of 5-HT released by the proximal gut increased from 140.1 μg (Control) to 463.1 μg in response to intravenous PYY.
(ELISA stands for enzyme-linked immunosorbent assay.)

The test system of series [2] is intestinal transit. Kind of series: Intestinal transit in multi-fistulated dogs, cumulative % recovery of 99mTc-DTPA. It counts as in vivo, dog. Conditions: n=2. The text has this:
The experiments described below are based on a previously described chronic multi-fistulated dog model, employing surgically fistulated male or female mongrel dogs weighing about 25 kg each. (Lin, H. C. et al., Inhibition of gastric emptying by glucose depends on length of intestine exposed to nutrient, Am. J. Physiol. 256:G404-G411 [1989]). The small intestines of the dogs were each about 300 cm long from the pylorus to the ileal-cecal valve. The duodenal fistula was situated 15 cm from the pylorus; the mid-gut fistula was situated 160 cm from the pylorus. Occluding Foley catheters (balloon catheters that are inflated to produce a water-tight seal with the lumenal surface) were placed into the distal limb of a duodenal fistula and a mid-gut fistula, fat or other test agents were administered lumenally to the thus compartmentalized Aproximal≅ section of the gut, i.e., between the fistulas, or to the compartmentalized Adistal≅ section of the gut, i.e., beyond the mid-gut fistula. Perfusate was pumped into a test section through the catheter at a rate of 2 mL/minute. Test agents were administered along with buffer perfusate, but some test agents were administered intravenously, where specifically noted.
Intestinal transit measurements were made by tracking the movement of a liquid marker across the approximately 150 cm intestinal test segment by delivering about 20 μCi ^99mTc chelated to diethyltriamine pentaacetic acid (DTPA)(Cunningham, K. M. et al., Use of technicium-99m (V)thiocyanate to measure gastric emptying of fat, J. Nucl. Med. 32:878-881 [1991]) as a bolus into the test segment after 60 minutes of a 90-minute perfusion. The output from the mid-gut fistula was collected every 5 min thereafter for 30 minutes, which period is illustrated in FIGS. 9-23. Using a matched dose of ^99mTc to represent the original radioactivity (Johansson, C., Studies of gastrointestinal interactions, Scand. J. Gastroenterol. 9(Suppl 28):1-60 [1974]; Zierler, K., A simplified explanation of the theory of indicator dilution for measurement of fluid flow and volume and other distributive phenomena, Bull. John Hopkins 103:199-217 [1958]), the radioactivity delivered into the animal as well as the radioactivity of the recovered fistula output were all measured using a gamma well counter. After correcting all counts to time zero, intestinal transit was calculated as the cumulative percent recovery of the delivered ^99mTc-DTPA. This method has been well validated over the years and appreciated for its advantage of minimal inadvertent marker loss. […] There was a very high level of marker recovery, with 90% of the marker recovered by 30 minutes and 98% of the marker recovered by 45 minutes.

Series [3] concerns isolated canine ileum. Conditions: infused into isolated canine ileum; Fox-Threlkeld et al. 1993; cited from earlier work.
The subject of series [4] is isolated segment of guinea pig colon. Conditions: Wade et al. 1996; slower as dose increased; cited from earlier work.
Series [5] concerns upper gut transit. Description: Upper gut transit time by lactulose breath hydrogen test after oleate or oleic acid. Format: in vivo, human. Conditions: 4 grams of oleic acid.
Series [6] has as its system upper gut transit. Described as above. Format: in vivo, human. Conditions: for upper gut transit time: case, diarrhea-predominant IBS. From the text: In a preliminary study, five patients with persistent diarrhea for 3 to 22 months, (one each due to vagal denervation, ileal resection for Crohn's disease, and vagotomy and antrectomy, and two due to idiopathic causes) were studied. […] This test relies on the metabolism of certain carbohydrate materials (e.g. lactulose) by the microbial flora within the caecum. By generating gas which can be detected in the expired air, it is possible to make some estimation about the initial arrival of the administered material within the colon.
Each patient received orally in random order, 0, 1.6 or 3.2 g of sodium oleate in 25 mL Ensure (Ross), followed by 100 mL water. Thirty minutes after each dose of oleate, patients received 10 g lactulose orally, followed by 25 mL water. Breath samples were collected in commercially available breath testing bags (Quintron, Menomonee Falls, Wis.) every 10-15 minutes, and the hydrogen content of the samples was measured using a breath analyzer (Microlyzer Model 12, Quintron Instruments, Menomonee Falls, Wis.), calibrated against gas samples of known hydrogen concentration. With a syringe, a 40-mL sample of the expired breath was withdrawn from the collection bag and analyzed immediately for hydrogen concentration (ppm). The hydrogen concentration value from each sample was plotted against time. Upper gut transit time was defined as the time in minutes from ingestion of lactulose (t0) until a rise of H2 of >10 ppm. Data were further analyzed using 1-way repeated measures analysis of variance (ANOVA)(See Table 4).
The effect of an active lipid on transit time was determined in 8 normal human subjects (1 male and 7 females with a mean age of 35±2.6 years [SE]) and 45 patients (20 males and 25 females with a mean age of 49.1±2.5 [SE], age range from 18 to 90 years) with chronic diarrhea (i.e., continuous diarrhea for more than two months) associated with a wide variety of diagnoses and conditions (e.g., Crohn's disease; irritable bowel syndrome; short bowel syndrome; Indiana pouch; AIDS; ulcerative colitis; vagotomy; antrectomy; ileostomy; partial and complete colectomy; colon cancer; diabetes mellitus type 1; pancreatic insufficiency; radiation enteropathy; esophagectomy/gastric pull-up; total and subtotal gastrectomy; gastrojejunostomy), made by referring gastroenterologists. The method was the same as described above, except oleic acid (Penta Manufacturing, Livingston, N.J.) replaced sodium oleate in 50 mL of Ensure emulsion. All subjects refrained from taking antibiotics for at least two weeks before each testing date and during stool measurement periods. Patients were also instructed to refrain from anti-diarrheal drugs, laxatives, somatostatin analogues or anticholinergics for at least 48 hours before each test. In both the normal and patient groups, there was a significant slowing of upper gut transit time in response to oleic acid, as summarized in Table 5 below (p<0.001).

For series [7], the system named is rapid upper gut transit and diarrhea. Description: Continued pre-meal oleate/oleic acid treatment: diarrhea, stool output, symptoms. It counts as in vivo, human. From the text: Continuing oleic acid treatment at home was offered to Aresponders≅ (i.e., patients who experienced a greater than 100% increase in baseline transit time with 3.2 g oleic acid). Of the 36 responders out of the original 45 patients, 18 provided records of stool volume and frequency on- and off-treatment for comparison. The inconvenient and unappealing nature of stool collection and measurement were the primary reasons reported by responders who chose not to participate in stool collection. After completing a set of three preliminary breath hydrogen tests, each participating responder was asked to refrain from taking oleic acid for two days in order to measure off-treatment stool output for a 24-hour period. Patients were issued a stool pattern record form and a stool collection container with graduated volume markings to record the frequency and volume of bowel movements. After two days without oleic acid, each patient took 3.2 g of oleic acid mixed with 25 mL of Ensure emulsion three times a day, 30 minutes before breakfast, lunch and dinner. After taking oleic acid for two days, patients recorded stool output for another 24-hour period. With this oleic acid emulsion treatment, stool frequency decreased from 6.9±0.8 to 5.4±0.9 bowel movements per 24-hour period (p<0.05), and stool volume decreased from 1829.0±368.6 to 1322.5±256.9 per 24-hour period (p<0.05).
The patient was a person with a history of adolescent-onset, persistent diarrhea. […] They presented with complaints of excessive gas, postprandial bloating, diarrhea and urgency, and 3 to 7 liquid bowel movements per day. Their upper gut transit times were (min) 30 (0 g oleic acid), 117 (1.6 g oleic acid) and 101 (3.2 g oleic acid).

“PYY: Peptide YY, a physiological fat signal molecule that slows transit”: the “amount of 5-HT released by the proximal gut” value in series [1] came to 463.1 µg. Besides, the marker recovery worked out at 11.8±5.4% in series [2] (30 μg PYY (0.8 mg/kg/h) intravenously, Buffer Control 78.1±2.2%) and 17.1±11.0% in series [2] (IV PYY 0.8 μg/kg/h + lumenal normal saline, control 75.1±3.6%). For the same compound, in series [3], the “phasic circular muscle activity” value is “dose-dependently increased”.
For `CNCCC(Oc1ccc(C(F)(F)F)cc1)c1ccccc1` (stereo not shown) [fluoxetine], the “passage of a pellet through an isolated segment of guinea pig colon” value in series [4] is “initially accelerated”.
As for `CCCCCCCC/C=C\CCCCCCCC(=O)O` [oleic acid], the mean transit time in series [5] (IBD patients (n=18)) was found to be 114.6 ± 16.0 min; in series [5] (normal subjects (n=5)) it was 136.0 ± 15.4 min. Also, in series [6] (3.2 g oleic acid, out of the original 45 patients), the “responders (greater than 100% increase in baseline transit time)” value amounted to 36. The “Transit time (mean ± SE)” value was 116 ± 11.1 min in series [6] (Normal subjects (8), 1.6 g oleic acid in 50 mL Ensure); 140 ± 11.5 min in series [6] (Normal subjects (8), 3.2 g oleic acid); 57.2 ± 4.5 min in series [6] (Patients with chronic diarrhea (45), 1.6 g oleic acid); 83.3 ± 5.2 min in series [6] (Patients with chronic diarrhea (45), 3.2 g oleic acid). Moreover, the “upper gut transit time” value in series [6] (1.6 g oleic acid) is 117 min; in series [6] (3.2 g oleic acid), 101 min. For the same compound, the “stool frequency, bowel movements per 24-hour period” value in series [7] (18 responders, 3.2 g in 25 mL Ensure three times a day, off-treatment 6.9±0.8) amounted to 5.4±0.9. The “stool volume per 24-hour period” value in series [7] (18 responders, on treatment, off-treatment 1829.0±368.6) worked out at 1322.5±256.9. In series [7] (case, diarrhea-predominant IBS), the “symptoms of gaseousness, bloating and rectal urgency” value is “complete relief”. In addition, in series [7] (case, diarrhea-predominant IBS, continuing treatment), the bowel frequency result is given as “single, solid bowel movement per day”. Besides, the adverse effect reported result in series [7] (only adverse effect reported by any patient) was “slight and transient burning sensation in the mouth or throat”.
